Results from the NIST ThermoML archive (doi:10.1021/je300972a).

Assay: refractive index (Na D-line) (dimensionless); xn = mol fraction of the nth substance listed
Settings: 101 kPa, Liquid, Standard Abbe refractometry

CCCC[n+]1ccc(C)cc1.O=S(=O)([N-]S(=O)(=O)C(F)(F)F)C(F)(F)F + CCCC[n+]1ccccc1.F[B-](F)(F)F
refractive index
Settings | 293.15 K | 303.15 K | 313.15 K | 323.15 K | 333.15 K | 343.15 K | 353.15 K
x2 = 0 | 1.448 | 1.4449 | 1.4419 | 1.4388 | 1.4358 | 1.4328 | 1.4298
x2 = 0.0575 | 1.4479 | 1.4448 | 1.4418 | 1.4388 | 1.4357 | 1.4328 | 1.4298
x2 = 0.1136 | 1.4477 | 1.4446 | 1.4416 | 1.4386 | 1.4356 | 1.4327 | 1.4297
x2 = 0.2311 | 1.4474 | 1.4444 | 1.4414 | 1.4385 | 1.4356 | 1.4327 | 1.4298
x2 = 0.3515 | 1.4472 | 1.4443 | 1.4414 | 1.4385 | 1.4356 | 1.4327 | 1.4299
x2 = 0.4566 | 1.4471 | 1.4441 | 1.4413 | 1.4384 | 1.4356 | 1.4328 | 1.43
x2 = 0.5692 | 1.4469 | 1.4441 | 1.4413 | 1.4385 | 1.4357 | 1.433 | 1.4302
x2 = 0.673 | 1.4468 | 1.444 | 1.4413 | 1.4385 | 1.4358 | 1.4331 | 1.4304
x2 = 0.7836 | 1.4468 | 1.4441 | 1.4413 | 1.4386 | 1.4359 | 1.4333 | 1.4306
x2 = 0.889 | 1.4469 | 1.4442 | 1.4416 | 1.4389 | 1.4362 | 1.4336 | 1.431
x2 = 0.9535 | 1.447 | 1.4443 | 1.4417 | 1.439 | 1.4364 | 1.4338 | 1.4313
